# Source: US20240182475A1 (Université de Lausanne, priority 2021, published 2024)
# Assays:
# MOVAS cells [1] = assay: Cytotoxicity assay, LDH release; assay type: cell-based, mouse
# Experimental: A) Alizarin red staining of MOVAS cells stimulated with CPP for 24 h in DMEM+10% FBS in presence of different concentrations of compound 22401. […] The background (Alizarin red staining obtained with cells in the absence of CPP) was subtracted from all values. B) Percentage of cytotoxicity, as measured by LDH release, in MOVAS cells in the same conditions as A). Statistical analysis was determined using one-way ANOVA with *p<0.05, **p<0.01, ***p<0.001.
# Measurement of lactate dehydrogenase (LDH) as a means of cytotoxicity assay was performed with using CytoTox-ONE Homogeneous Membrane Integrity Assay (Promega) according to the manufacturer's instructions. Values were calculated as percentage of cytotoxicity using the following formula: [(value in sample)−(background)]/[(value in Triton X-100-treated sample)−(background)]×100.
# recombinant human CSE = recombinant human CSE (Homo sapiens, UniProt P32929); assay: CSE activity (AzMC probe assay), H2S production by recombinant human CSE; assay type: biochemical; details: for CSE activity (AZMC probe assay) % of activation: (RFU compound max - RFU compound 0/RFU CSE 2 ug - RFU compound 0)*100; for EC50: EC50 calculated by the four-parameter logistic model
# Experimental: The activity of recombinant human CSE (rCSE) was tested in the presence of C5, compound 8 (50 uM), Z20 compound 13 (50 uM) or vehicle (DMSO). Briefly, compounds were added in reaction buffer (50 mM Tris-HCl, pH 8) containing 2 μg of rCSE, 10 mM CSE substrate L-cysteine, 5 uM pyridoxal 5′-phosphate (PLP). After addition of 10 μM of the H2S sensitive fluorescent probe 7-azido-4-methylcoumarin (AzMC) in a total volume of 100 μl, fluorescence was immediately measured in kinetic mode for 2 h at 37° C. with SpectraMax M5 reader, with excitation and emission wavelengths of 365 nm and 450 nm, respectively. Statistical analysis was determined using simple linear regression with p<0.0001 for C5 vs. vehicle and p<0.0002 for Z20 vs. vehicle.
# Recombinant human CSE (1 μg/well) was incubated with various concentrations of compounds (all in final 0.1% DMSO), or with 0.1% DMSO as a control, in 10 mM sodium phosphate buffer pH 8.2. Next, 10 mM L-cysteine and 1 mM PLP and 10 μM of the probe AzMC were then added to reach 100 μL total volume. Fluorescence was measured for 3 h at 37° C. with excitation and emission wavelengths of 365 nm and 450 nm, respectively, in a 96-well half area black plate with transparent bottom.
# Dose-response curve of each compound was performed, using triplicate wells for each tested doses. The background (10 mM sodium phosphate buffer with L-cysteine, PLP and AzMC) was subtracted from all values. Each mean value was converted to percent activity (0% defined as the smallest mean in each data set, 100% defined as the highest mean in each data set). The data were normalized using the four parameter logistic model (4PL) equation to calculate EC50 using GraphPad Prism.
# MOVAS cells [2] = assay: MOVAS cell calcification assay (Alizarin red); assay type: cell-based, mouse; details: Mus musculus, MOVAS, read-out: Calcification assay Max calcification inhibition (%) at the indicated dose of compound
# Experimental: A) Alizarin red staining of MOVAS cells stimulated with sCPP for 24 h in DMEM+10% FBS and treated or not with 50 uM of compounds. […] Statistical analysis was determined using one-way ANOVA with ***p<0.001. C) Percentage of cytotoxicity (LDH %) in MOVAS treated or not with compounds for 24 h. D) MOVAS cells were seeded onto half-area 96-well plate and incubated overnight. Then C5 or C6 at 50 uM or vehicle (DMSO), L-cysteine at 10 mM, PLP at 5 uM and the H2S sensitive fluorescent probe AzMC at 10 μM were added. The fluorescence was immediately measured in kinetic mode for 2 h at 37° C. with SpectraMax M5 reader, with excitation and emission wavelengths of 365 nm and 450 nm, respectively.
# A) Alizarin red staining of Movas cells stimulated with sCPP for 24 h in DMEM+10% FBS and treated or not with 50 uM of Z20. […] C) Percentage of cytotoxicity (LDH %) in murine chondrocytes treated or not with Z20 for 24 h. Statistical analysis was determined using one-way ANOVA with ***p<0.001.
# Alizarin red staining of MOVAS cells stimulated with sCPP for 24 h in DMEM+10% FBS and treated or not with different concentrations of compounds (A: C6) and (B: Z20). The graphs show Alizarin red absorbance at 570-630 nm. Statistical analysis was determined using one-way ANOVA with *p<0.05, **p<0.01, ***p<0.001.
# CPP were generated by preparing 20 ml DMEM containing 10% FBS, 1 mmol/L CaCl2, 3.5 mmol/L inorganic phosphate (1.36 mmol/L NaH2PO4 and 2.14 mmol/L Na2HPO4) (Aghagolzadeh et al. Atherosclerosis, 2016). After 7 days incubation at 37° C., the suspension was centrifuged at 25000 g for 2 h at 4° C., and the pellet containing CPP was resuspended in 1 ml DMEM and stored at −20° C. until further use.
# Mouse vascular smooth muscle cell line (MOVAS) cells were cultured according to the manufacturer's guidelines in DMEM culture medium supplemented with 10% FBS. Cells were cultured at 37° C. in a humidified atmosphere with 5% CO2. All cell culture experiments in 96-well plates were performed in triplicates and were repeated independently two times.
# For calcification experiments, cells were seeded in 96-well plates at a density of 50,000 cells/well and left to attach for 18 h. Calcification of cell monolayers was induced by CPP (equivalent to 50 μg Ca/mL) for 24 h at 37° C., 5% CO2 in presence of various concentrations of compounds (all in final 0.1% DMSO), or of 0.1% DMSO as a control, to reach a final volume of 200 μl/well. Calcium deposition was assessed by 0.5% w/v Alizarin Red staining (pH 4.2). Briefly, after PBS washing, methanol fixation for 10 min at 4° C., and milli-Q water washing, cells were incubated for 60 min with 200 μL Alizarin Red solution and then washed four times with milli-Q water. Quantification was performed after crystal dissolution with cetylpyridinium chloride (10%) for 18 h. The absorbance was measured at 570 and 630 nm using the Spectramax M5e reader (Molecular Devices). The background (alizarin red staining obtained with cells in the absence of CPP) was subtracted from all values.
# recombinant human CSE, sequence (P32929 whole entry): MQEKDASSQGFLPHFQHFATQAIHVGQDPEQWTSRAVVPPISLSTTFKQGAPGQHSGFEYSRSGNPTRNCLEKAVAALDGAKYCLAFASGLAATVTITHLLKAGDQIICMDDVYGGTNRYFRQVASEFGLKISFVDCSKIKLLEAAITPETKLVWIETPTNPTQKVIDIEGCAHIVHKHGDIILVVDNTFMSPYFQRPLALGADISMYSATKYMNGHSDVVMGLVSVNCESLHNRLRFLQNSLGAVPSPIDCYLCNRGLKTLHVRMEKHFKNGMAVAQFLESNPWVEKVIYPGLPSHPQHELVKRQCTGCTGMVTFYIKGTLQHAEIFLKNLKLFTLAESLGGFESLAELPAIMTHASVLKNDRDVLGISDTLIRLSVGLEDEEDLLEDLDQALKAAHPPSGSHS
compound,measurement,setting,value
"CCn1cnc2c(Nc3cnn(C)c3)ncnc21 [Compound 25, 9-ethyl-N-(1-methyl-1H-pyrazol-4-yl)-9H-purin-6-amine]",Cytotoxicity assay LDH release (% of cytotoxicity),MOVAS cells [1]; no dose given,20%
same,CSE activity (AZMC probe assay) % of activation,recombinant human CSE,56%
same,EC50,recombinant human CSE,0.026 µM
"CCn1cnc2c(Nc3cnn(CC4CCCO4)c3)ncnc21 (stereo not shown) [Compound 19, 9-ethyl-N-(1-((tetrahydrofuran-2-yl)methyl)-1H-pyrazol-4-yl)-9H-purin-6-amine]",inhibition at 50 µM,MOVAS cells [2]; at 50 uM,48%
same,Cytotoxicity assay LDH release (% of cytotoxicity),MOVAS cells [1]; at 50 uM,15% at
same,CSE activity (AZMC probe assay) % of activation,recombinant human CSE,28%
same,EC50,recombinant human CSE,0.0418 µM
"O=C(Nc1cnn(CC2CCCO2)c1)c1ccccc1 (stereo not shown) [Compound 36, N-(1-((tetrahydrofuran-2-yl)methyl)-1H-pyrazol-4-yl)benzamide]",inhibition at 0.07 µM,MOVAS cells [2]; at 0.07 uM,42%
same,Cytotoxicity assay LDH release (% of cytotoxicity),MOVAS cells [1]; at 0.07 uM,12% at
same,CSE activity (AZMC probe assay) % of activation,recombinant human CSE,62%
same,EC50,recombinant human CSE,0.0158 µM
"CCn1cnc2c(Nc3cnn(Cc4ccccn4)c3)ncnc21 [Compound 34, 9-ethyl-N-(1-(pyridin-2-ylmethyl)-1H-pyrazol-4-yl)-9H-purin-6-amine]",Cytotoxicity assay LDH release (% of cytotoxicity),MOVAS cells [1]; no dose given,20%
same,CSE activity (AZMC probe assay) % of activation,recombinant human CSE,35%
same,EC50,recombinant human CSE,0.0317 µM
"CCn1cnc2c(Nc3cnn(CC4CCCCC4)c3)ncnc21 [Compound 30, N-(1-(cyclohexylmethyl)-1H-pyrazol-4-yl)-9-ethyl-9H-purin-6-amine]",inhibition at 20 µM,MOVAS cells [2],80%
same,Cytotoxicity assay LDH release (% of cytotoxicity),MOVAS cells [1]; at 20 uM,5% at
same,CSE activity (AZMC probe assay) % of activation,recombinant human CSE,39%
same,EC50,recombinant human CSE,0.0318 µM
"c1cc(Nc2cnn(CC3CCCO3)c2)ncn1 (stereo not shown) [Compound 20, N-(1-((tetrahydrofuran-2-yl)methyl)-1H-pyrazol-4-yl)pyrimidin-4-amine]",inhibition at 20 µM,MOVAS cells [2],23%
same,Cytotoxicity assay LDH release (% of cytotoxicity),MOVAS cells [1]; at 20 uM,16% at
same,CSE activity (AZMC probe assay) % of activation,recombinant human CSE,46%
same,EC50,recombinant human CSE,0.021 µM
"CCn1cnc2c(Nc3cnn(CCOC)c3)ncnc21 [Compound 47, 9-ethyl-N-(1-(2-methoxyethyl)-1H-pyrazol-4-yl)-9H-purin-6-amine]",inhibition at 20 µM,MOVAS cells [2],37%
same,Cytotoxicity assay LDH release (% of cytotoxicity),MOVAS cells [1]; at 20 uM,25% at
same,CSE activity (AZMC probe assay) % of activation,recombinant human CSE,106%
same,EC50,recombinant human CSE,0.0389 µM
c1cnc(Nc2cnn(CC3CCCO3)c2)nc1 (stereo not shown) [Compound 32],inhibition at 2 µM,MOVAS cells [2]; at 2 uM,36%
same,Cytotoxicity assay LDH release (% of cytotoxicity),MOVAS cells [1]; at 2 uM,15% at
same,CSE activity (AZMC probe assay) % of activation,recombinant human CSE,76%
same,EC50,recombinant human CSE,0.0352 µM
"O=[N+]([O-])c1ccc(Nc2cnn(CC3CCCO3)c2)cc1 (stereo not shown) [Compound 35, N-(4-nitrophenyl)-1-((tetrahydrofuran-2-yl)methyl)-1H-pyrazol-4-amine]",inhibition at 0.3 µM,MOVAS cells [2],23%
same,Cytotoxicity assay LDH release (% of cytotoxicity),MOVAS cells [1]; at 0.3 uM,4% at
same,CSE activity (AZMC probe assay) % of activation,recombinant human CSE,109%
same,EC50,recombinant human CSE,0.043 µM
"N#Cc1cccc(C(=O)Nc2cnn(CC3CCCO3)c2)c1 (stereo not shown) [Compound 45, 3-cyano-N-(1-((tetrahydrofuran-2-yl)methyl)-1H-pyrazol-4-yl)benzamide]",inhibition at 5 µM,MOVAS cells [2]; at 5 uM,57%
same,Cytotoxicity assay LDH release (% of cytotoxicity),MOVAS cells [1]; at 5 uM,12% at
same,CSE activity (AZMC probe assay) % of activation,recombinant human CSE,59%
same,EC50,recombinant human CSE,0.0396 µM
"c1cnc(Nc2cnn(CC3CCCCC3)c2)nc1 [Compound 31, N-(1-(cyclohexylmethyl)-1H-pyrazol-4-yl)pyrimidin-2-amine]",Cytotoxicity assay LDH release (% of cytotoxicity),MOVAS cells [1]; no dose given,15%
same,CSE activity (AZMC probe assay) % of activation,recombinant human CSE,61%
same,EC50,recombinant human CSE,0.0674 µM
"O=C(Nc1cnn(CC2CCCO2)c1)c1ccc2ccccc2c1 (stereo not shown) [Compound 40, N-(1-((tetrahydrofuran-2-yl)methyl)-1H-pyrazol-4-yl)-2-naphthamide]",inhibition at 0.3 µM,MOVAS cells [2],56%
same,Cytotoxicity assay LDH release (% of cytotoxicity),MOVAS cells [1]; at 0.3 uM,10% at
same,CSE activity (AZMC probe assay) % of activation,recombinant human CSE,65%
same,EC50,recombinant human CSE,0.0044 µM
"O=C(Nc1cnn(CC2CCCO2)c1)c1cccc(F)c1 (stereo not shown) [Compound 39, 3-fluoro-N-(1-((tetrahydrofuran-2-yl)methyl)-1H-pyrazol-4-yl)benzamide]",inhibition at 20 µM,MOVAS cells [2],30%
same,Cytotoxicity assay LDH release (% of cytotoxicity),MOVAS cells [1]; at 20 uM,8% at
same,CSE activity (AZMC probe assay) % of activation,recombinant human CSE,33%
same,EC50,recombinant human CSE,0.137 µM
"CCCn1cc(Nc2ncnc3c2ncn3CC)cn1 [Compound 33, 9-ethyl-N-(1-propyl-1H-pyrazol-4-yl)-9H-purin-6-amine]",Cytotoxicity assay LDH release (% of cytotoxicity),MOVAS cells [1]; no dose given,20%
same,CSE activity (AZMC probe assay) % of activation,recombinant human CSE,59%
same,EC50,recombinant human CSE,0.0197 µM
"Cn1cc(Nc2ncccn2)cn1 [Compound 26, N-(1-methyl-1H-pyrazol-4-yl)pyrimidin-2-amine]",Cytotoxicity assay LDH release (% of cytotoxicity),MOVAS cells [1]; no dose given,20%
same,CSE activity (AZMC probe assay) % of activation,recombinant human CSE,57%
same,EC50,recombinant human CSE,0.0385 µM
